Source: patent US20260166045A1, “COMBINATION THERAPY COMPRISING GSPT1-DIRECTED MOLECULAR GLUE DEGRADERS AND PI3K/AKT/mTOR PATHWAY INHIBITORS” (Monte Rosa Therapeutics, Inc., priority 2022, published 2026)
Values joined by “and” are separate entries in the source; they are usually repeats but may differ in a detail not shown here. Identical values can stand only once.

Key:
Assay in all cases: CellTiter-Glo 2.0 cell viability, 7x7 combination dose response matrix, synergy scoring
Assay type in all cases: cell-based
[1] = system: CAL51 cell line; settings: CAL51
[2] = system: NCI-H2023 cell line
[3] = system: ABC-1 cell line
[4] = system: CAL51 mutant cell line
[5] = combined with Alpelisib 41-10000 nM, first compound 4.1-1000 nM
[6] = combined with Capivasertib 41-10000 nM, first compound 4.1-1000 nM
[7] = combined with Everolimus 41-10000 nM, first compound 4.1-1000 nM
[8] = combined with GNE-477 41-10000 nM, first compound 4.1-1000 nM
[9] = combined with KU-0063794 41-10000 nM, first compound 4.1-1000 nM
[10] = combined with M2698 41-10000 nM, first compound 4.1-1000 nM
[11] = NCI-H2023, combined with GNE-477 21-10000 nM, first compound 1.05-500 nM
[12] = NCI-H2023, combined with KU-0063794 21-10000 nM, first compound 1.05-500 nM
[13] = NCI-H2023, combined with M2698 21-10000 nM, first compound 1.05-500 nM
[14] = ABC-1, combined with GNE-477 21-10000 nM, first compound 1.05-500 nM
[15] = ABC-1, combined with KU-0063794 21-10000 nM, first compound 1.05-500 nM
[16] = ABC-1, combined with M2698 21-10000 nM, first compound 1.05-500 nM
[17] = combined with Everolimus 4.1-1000 nM, first compound 4.1-1000 nM
[18] = combined with Alpelisib 41-10000 nM, first compound 0.41-33.33 nM
[19] = combined with Alpelisib 41-10000 nM, first compound 0.41-100 nM
[20] = combined with Capivasertib 41-10000 nM, first compound 0.41-100 nM
[21] = combined with Everolimus 41-10000 nM, first compound 0.41-100 nM
[22] = combined with GNE-477 41-10000 nM, first compound 0.41-100 nM
[23] = combined with HS173 41-10000 nM, first compound 0.41-100 nM
[24] = combined with KU-0063794 41-10000 nM, first compound 0.41-100 nM
[25] = combined with M2698 41-10000 nM, first compound 0.41-100 nM
[26] = combined with Serabelisib 41-10000 nM, first compound 0.41-100 nM
[27] = NCI-H2023, combined with Alpelisib 21-10000 nM, first compound 0.21-100 nM
[28] = NCI-H2023, combined with Capivasertib 21-10000 nM, first compound 0.21-100 nM
[29] = NCI-H2023, combined with Everolimus 2.1-1000 nM, first compound 0.21-100 nM
[30] = NCI-H2023, combined with GNE-477 21-10000 nM, first compound 0.21-100 nM
[31] = NCI-H2023, combined with KU-0063794 21-10000 nM, first compound 0.21-100 nM
[32] = NCI-H2023, combined with M2698 21-10000 nM, first compound 0.21-100 nM
[33] = ABC-1, combined with Alpelisib 21-10000 nM, first compound 0.21-100 nM
[34] = ABC-1, combined with Capivasertib 21-10000 nM, first compound 0.21-100 nM
[35] = ABC-1, combined with Everolimus 2.1-1000 nM, first compound 0.21-100 nM
[36] = ABC-1, combined with GNE-477 21-10000 nM, first compound 0.21-100 nM
[37] = ABC-1, combined with KU-0063794 21-10000 nM, first compound 0.21-100 nM
[38] = ABC-1, combined with M2698 21-10000 nM, first compound 0.21-100 nM
[39] = combined with Everolimus 4.1-1000 nM, first compound 0.41-100 nM

O=C1CCC(N2Cc3ccc(COC(=O)Nc4cc(OC(F)(F)F)ccc4F)cc3C2=O)C(=O)N1 (centres unmarked) [Compound 1-1, [2-(2,6-dioxopiperidin-3-yl)-3-oxo-2,3-dihydro-1H-isoindol-5-yl]methyl N-[2-fluoro-5-(trifluoromethoxy)phenyl]carbamate]
Mean Bliss synergy score [1, 5]: 14.61 | Mean Loewe synergy score [1, 5]: 11.03 | Mean Bliss synergy score [1, 6]: 32.32 | Mean Loewe synergy score [1, 6]: 28.73 | Mean Bliss synergy score [1, 7]: 29.55 | Mean Loewe synergy score [1, 7]: 34.51 | Mean Bliss synergy score [1, 8]: 12.11 | Mean Loewe synergy score [1, 8]: 12.09 | Mean Bliss synergy score [1, 9]: 20.80 | Mean Loewe synergy score [1, 9]: 19.07 | Mean Bliss synergy score [1, 10]: 18.29 | Mean Loewe synergy score [1, 10]: 22.14 | Mean Bliss synergy score [2, 11]: 16.57 | Mean Loewe synergy score [2, 11]: 4.95 | Mean Bliss synergy score [2, 12]: 16.57 | Mean Loewe synergy score [2, 12]: 7.27 | Mean Bliss synergy score [2, 13]: 10.90 | Mean Loewe synergy score [2, 13]: 9.33 | Mean Bliss synergy score [3, 14]: 17.46 | Mean Loewe synergy score [3, 14]: 13.06 | Mean Bliss synergy score [3, 15]: 23.16 | Mean Loewe synergy score [3, 15]: 12.88 | Mean Bliss synergy score [3, 16]: 17.47 | Mean Loewe synergy score [3, 16]: 14.22 | Mean Bliss synergy score [4, 5]: 4.76 | Mean Loewe synergy score [4, 5]: 0.35 | Mean Bliss synergy score [4, 6]: −0.44 | Mean Loewe synergy score [4, 6]: −3.66 | Mean Bliss synergy score [4, 17]: −3.14 | Mean Loewe synergy score [4, 17]: 4.91 | Mean Bliss synergy score [4, 8]: 2.54 | Mean Loewe synergy score [4, 8]: −2.04 | Mean Bliss synergy score [4, 9]: 2.83 | Mean Loewe synergy score [4, 9]: −1.46 | Mean Bliss synergy score [4, 10]: −2.37 | Mean Loewe synergy score [4, 10]: −2.73

Cc1ccc(NC(=O)OCc2ccc3c(c2)C(=O)N(C2CCC(=O)NC2=O)C3)cc1Cl (centres unmarked) [Compound 1-6, [2-(2,6-dioxopiperidin-3-yl)-3-oxo-2,3-dihydro-1H-isoindol-5-yl]methyl N-(3-chloro-4-methylphenyl)carbamate]
Mean Bliss synergy score [1, 18]: 4.15 | Mean Loewe synergy score [1, 18]: 7.89 | Mean Bliss synergy score [1, 19]: 13.06 and 19.57 | Mean Loewe synergy score [1, 19]: 11.36 and 7.04 | Mean Bliss synergy score [1, 20]: 24.03 and 20.68 | Mean Bliss synergy score [1, 21]: 20.31 | Mean Loewe synergy score [1, 21]: 22.83 | Mean Bliss synergy score [1, 22]: 5.80 | Mean Loewe synergy score [1, 22]: 6.34 | Mean Bliss synergy score [1, 23]: 4.98 | Mean Loewe synergy score [1, 23]: 1.89 | Mean Bliss synergy score [1, 24]: 12.93 | Mean Loewe synergy score [1, 24]: 8.26 | Mean Bliss synergy score [1, 25]: 11.87 and 11.78 | Mean Loewe synergy score [1, 25]: 12.09 and 12.43 | Mean Bliss synergy score [1, 26]: 4.74 | Mean Loewe synergy score [1, 26]: 0.94 | Mean Bliss synergy score [2, 27]: 19.68 | Mean Loewe synergy score [2, 27]: 8.92 | Mean Bliss synergy score [2, 28]: 22.78 | Mean Loewe synergy score [2, 28]: 11.70 | Mean Bliss synergy score [2, 29]: 13.21 | Mean Loewe synergy score [2, 29]: 17.02 | Mean Bliss synergy score [2, 30]: 14.13 | Mean Loewe synergy score [2, 30]: 5.10 | Mean Bliss synergy score [2, 31]: 18.40 | Mean Loewe synergy score [2, 31]: 11.37 | Mean Bliss synergy score [2, 32]: 12.91 | Mean Loewe synergy score [2, 32]: 11.66 | Mean Bliss synergy score ([2]; combined with KU-0063794 (21 nM to 10 uM), NCI-H2023 cell line, mean across dose response matrix, 72 hrs): 18.40 | Mean Loewe synergy score ([2]; combined with M2698 (21 nM to 10 uM), NCI-H2023 cell line, mean across dose response matrix, 72 hrs): 11.66 | Mean Bliss synergy score [3, 33]: 20.25 | Mean Loewe synergy score [3, 33]: 11.94 | Mean Bliss synergy score [3, 34]: 33.20 | Mean Loewe synergy score [3, 34]: 16.0 | Mean Bliss synergy score [3, 35]: 26.31 | Mean Loewe synergy score [3, 35]: 19.39 | Mean Bliss synergy score [3, 36]: 20.34 | Mean Loewe synergy score [3, 36]: 7.13 | Mean Bliss synergy score [3, 37]: 19.44 | Mean Loewe synergy score [3, 37]: 7.24 | Mean Bliss synergy score [3, 38]: 17.02 | Mean Loewe synergy score [3, 38]: 8.75 | Mean Bliss synergy score ([3]; combined with Everolimus (2.1 nM to 1 uM), ABC-1 cell line, mean across dose response matrix, 72 hrs): 26.31 | Mean Bliss synergy score [4, 19]: −0.63 | Mean Loewe synergy score [4, 19]: −1.04 | Mean Bliss synergy score [4, 20]: 0.95 | Mean Loewe synergy score [4, 20]: −0.06 | Mean Bliss synergy score [4, 39]: −1.53 | Mean Loewe synergy score [4, 39]: −0.66 | Mean Bliss synergy score [4, 22]: −1.35 | Mean Loewe synergy score [4, 22]: −2.34 | Mean Bliss synergy score [4, 24]: −1.01 | Mean Loewe synergy score [4, 24]: −0.85 | Mean Bliss synergy score [4, 25]: 0.82 | Mean Loewe synergy score [4, 25]: −0.62
